The target of one assay is FAK (Homo sapiens (Human), UniProt Q05397). Description: Biochemical assay for FAK activity (LANCE TR-FRET, ULight-poly Glu,Ala,Tyr substrate). The note with it: GST-tagged FAK, 120 min reaction. Summed up: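 GST-tagged FAK (2.5 nM working stock) with ULight-poly Glu,Ala,Tyr (666 nM stock) and ATP (33.3 μM stock) in Tris pH 7.5/MgCl2/DTT/CHAPS buffer with BSA, 120 min; EDTA-quenched. Phosphorylation read by TR-FRET with Eu-anti-phosphotyrosine (PY20) antibody after 60 min. Compounds tested as 12-point 3-fold dilutions.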
FAK, sequence (Q05397 whole entry): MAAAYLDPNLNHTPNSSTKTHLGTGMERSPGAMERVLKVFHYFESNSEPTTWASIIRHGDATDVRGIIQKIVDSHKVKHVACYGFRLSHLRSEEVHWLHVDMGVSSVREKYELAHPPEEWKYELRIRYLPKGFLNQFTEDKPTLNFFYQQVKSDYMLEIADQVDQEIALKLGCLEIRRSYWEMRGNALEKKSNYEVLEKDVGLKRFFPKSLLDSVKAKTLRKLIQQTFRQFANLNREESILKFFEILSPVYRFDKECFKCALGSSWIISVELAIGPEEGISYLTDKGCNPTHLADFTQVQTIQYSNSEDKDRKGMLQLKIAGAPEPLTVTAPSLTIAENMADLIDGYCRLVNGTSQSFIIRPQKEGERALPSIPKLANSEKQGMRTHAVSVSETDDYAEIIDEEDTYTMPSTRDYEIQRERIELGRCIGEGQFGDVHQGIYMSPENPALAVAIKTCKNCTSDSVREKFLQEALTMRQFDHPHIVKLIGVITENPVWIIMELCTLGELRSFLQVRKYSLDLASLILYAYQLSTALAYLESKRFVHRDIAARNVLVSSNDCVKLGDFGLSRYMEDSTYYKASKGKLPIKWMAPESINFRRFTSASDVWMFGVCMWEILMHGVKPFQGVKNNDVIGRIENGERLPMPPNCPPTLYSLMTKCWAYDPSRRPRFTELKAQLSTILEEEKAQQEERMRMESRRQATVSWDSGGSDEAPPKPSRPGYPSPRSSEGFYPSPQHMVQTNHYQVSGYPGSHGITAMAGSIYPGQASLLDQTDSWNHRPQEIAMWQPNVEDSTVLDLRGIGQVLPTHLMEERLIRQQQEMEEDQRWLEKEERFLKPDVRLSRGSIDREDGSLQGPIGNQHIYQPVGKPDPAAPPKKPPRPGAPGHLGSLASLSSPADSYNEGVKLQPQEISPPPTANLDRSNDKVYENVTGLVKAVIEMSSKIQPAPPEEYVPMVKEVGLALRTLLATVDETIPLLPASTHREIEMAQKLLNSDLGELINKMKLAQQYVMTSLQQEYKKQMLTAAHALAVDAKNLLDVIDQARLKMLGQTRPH

The target in a further assay is PYK2 (Homo sapiens (Human), UniProt Q14289). In words: Biochemical assay for PYK2 activity (LANCE TR-FRET, ULight-poly Glu,Ala,Tyr substrate). The note with it: GST-tagged PYK2, 40 min reaction. Summed up:
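GST-tagged human PYK2 (2 nM working stock) with ULight-poly Glu,Ala,Tyr (1:1:1) peptide (666 nM working stock) and ATP (46.6 μM working stock) in 40 mM Tris pH 7.5, MgCl2, 1 mM DTT, 1 mM CHAPS; 40 min reaction, EDTA quench. Phosphotyrosine read by LANCE Eu-anti-phosphotyrosine (PY20) TR-FRET after 60 min; 12-point 3-fold compound dilutions.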
A general note: TR-FRET usually uses a lanthanide donor and a delayed reading to cut background.

The structures appear in SMILES notation. Some results are limits rather than exact numbers.

As a reminder, the IC50 is the concentration that gives 50% inhibition. A lower IC50 goes with inhibition by little substance.

PYK2, sequence (Q14289 whole entry): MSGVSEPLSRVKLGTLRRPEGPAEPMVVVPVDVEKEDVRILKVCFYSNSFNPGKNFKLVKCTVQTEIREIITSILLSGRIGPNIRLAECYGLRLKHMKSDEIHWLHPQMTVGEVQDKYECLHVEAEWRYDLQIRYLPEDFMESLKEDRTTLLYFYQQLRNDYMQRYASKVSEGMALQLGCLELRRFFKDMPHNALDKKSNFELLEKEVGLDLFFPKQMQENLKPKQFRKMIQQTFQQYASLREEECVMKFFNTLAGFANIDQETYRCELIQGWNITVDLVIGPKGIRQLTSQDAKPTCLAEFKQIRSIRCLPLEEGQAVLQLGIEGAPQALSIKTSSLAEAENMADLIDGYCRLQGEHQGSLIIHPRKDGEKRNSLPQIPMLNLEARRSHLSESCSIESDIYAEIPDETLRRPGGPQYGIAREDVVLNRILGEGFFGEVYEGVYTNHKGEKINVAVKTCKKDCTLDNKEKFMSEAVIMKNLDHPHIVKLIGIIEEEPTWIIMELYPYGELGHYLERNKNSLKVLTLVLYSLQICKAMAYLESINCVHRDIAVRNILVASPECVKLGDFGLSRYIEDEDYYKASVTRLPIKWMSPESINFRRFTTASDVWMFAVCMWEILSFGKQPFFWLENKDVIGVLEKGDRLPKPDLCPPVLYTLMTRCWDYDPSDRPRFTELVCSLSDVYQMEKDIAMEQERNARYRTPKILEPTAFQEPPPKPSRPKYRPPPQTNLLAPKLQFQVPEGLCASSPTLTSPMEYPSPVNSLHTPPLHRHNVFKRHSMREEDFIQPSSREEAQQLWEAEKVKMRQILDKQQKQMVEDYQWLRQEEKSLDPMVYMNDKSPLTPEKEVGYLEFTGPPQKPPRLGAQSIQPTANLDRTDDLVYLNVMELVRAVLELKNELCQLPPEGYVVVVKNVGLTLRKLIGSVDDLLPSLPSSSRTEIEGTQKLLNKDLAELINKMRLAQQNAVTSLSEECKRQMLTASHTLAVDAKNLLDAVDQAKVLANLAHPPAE

As for `COc1cc(-n2ccnc2)ccc1Nc1nc2c(c(Nc3ccccc3S(=O)(=O)NC(C)C)n1)CCN2` [Example 77, 2-(2-(4-(1H-imidazol-1-yl)-2-methoxyphenylamino)-6,7-dihydro-5H-pyrrolo[2,3-d]pyrimidin-4-ylamino)-N-isopropylbenzenesulfonamide], the IC50 against FAK and against PYK2 was under 0.5 µM each time.
Turning to `COc1cc(N2CCOCC2)ccc1Nc1nc2c(c(Nc3ccccc3N(C)S(C)(=O)=O)n1)C1(CC1)CN2` [Example 156, N-(2-(2′-(2-methoxy-4-morpholinophenylamino)-6′,7′-dihydrospiro[cyclopropane-1,5′-pyrrolo[2,3-d]pyrimidine]-4′-ylamino)phenyl)-N-methylmethanesulfonamide], the IC50 against FAK and against PYK2 was under 0.02 µM throughout.
For the compound `COCCNS(=O)(=O)c1ccccc1Nc1nc(Nc2ccc(N3CCOCC3)cc2OC)nc2c1C1(CC1)CN2` [Example 141, 2-(2′-(2-methoxy-4-morpholinophenylamino)-6′,7′-dihydrospiro[cyclopropane-1,5′-pyrrolo[2,3-d]pyrimidine]-4′-ylamino)-N-(2-methoxyethyl)benzenesulfonamide], the IC50 on FAK and against PYK2 was under 0.02 µM each time.
For `COc1cc(N2CCOCC2)ccc1Nc1nc2c(c(Nc3ccccc3S(=O)(=O)NC3CCCC3)n1)C1(CC1)CN2` [Example 145, N-cyclopentyl-2-(2′-(2-methoxy-4-morpholinophenylamino)-6′,7′-dihydrospiro[cyclopropane-1,5′-pyrrolo[2,3-d]pyrimidine]-4′-ylamino)benzenesulfonamide], the IC50 against FAK and against PYK2 was under 0.1 µM each time.
Turning to `CNC(=O)c1ccccc1Nc1nc(Nc2cc(OC)c(OC)c(OC)c2)nc2c1C(C)(C)CN2` [Example 130, 2-(5,5-dimethyl-2-(3,4,5-trimethoxyphenylamino)-6,7-dihydro-5H-pyrrolo[2,3-d]pyrimidin-4-ylamino)-N-methylbenzamide], the IC50 against FAK and on PYK2 was under 0.2 µM in each case.
Turning to `CNC(=O)c1ccccc1Nc1nc(Nc2ccc(N3CCOCC3)cc2OC)nc2c1C(C)CN2` (racemic) [Example 23, (±)-2-(2-(2-methoxy-4-morpholinophenylamino)-5-methyl-6,7-dihydro-5H-pyrrolo[2,3-d]pyrimidin-4-ylamino)-N-methylbenzamide], the IC50 against FAK and on PYK2 was under 0.05 µM each time.
Turning to `CCCNS(=O)(=O)c1ccccc1Nc1nc(Nc2ccc(N3CCOCC3)cc2OC)nc2c1C1(CC1)CN2` [Example 148, 2-(2′-(2-methoxy-4-morpholinophenylamino)-6′,7′-dihydrospiro[cyclopropane-1,5′-pyrrolo[2,3-d]pyrimidine]-4′-ylamino)-N-propylbenzenesulfonamide], the IC50 against FAK and on PYK2 was under 0.02 µM each time.
As for `CCNS(=O)(=O)c1ccccc1Nc1nc(Nc2ccc(N3CCOCC3)cc2OC)nc2c1C(C)(C)CN2` [Example 113, N-ethyl-2-(2-(2-methoxy-4-morpholinophenylamino)-5,5-dimethyl-6,7-dihydro-5H-pyrrolo[2,3-d]pyrimidin-4-ylamino)benzenesulfonamide], the IC50 against FAK and on PYK2 was under 0.02 µM each time.
As for `COc1cc(N2CCOCC2)ccc1Nc1nc2c(c(Nc3ccccc3S(=O)(=O)N(C)C)n1)C1(CC1)CN2` [Example 151, 2-(2′-(2-methoxy-4-morpholinophenylamino)-6′,7′-dihydrospiro[cyclopropane-1,5′-pyrrolo[2,3-d]pyrimidine]-4′-ylamino)-N,N-dimethylbenzenesulfonamide], the IC50 at FAK and against PYK2 was under 0.02 µM throughout.
On to `COCCNS(=O)(=O)c1ccccc1Nc1nc(Nc2ccc(N3CCOCC3)cc2OC)nc2c1C(C)(C)CN2` [Example 115, 2-(2-(2-methoxy-4-morpholinophenylamino)-5,5-dimethyl-6,7-dihydro-5H-pyrrolo[2,3-d]pyrimidin-4-ylamino)-N-(2-methoxyethyl)benzenesulfonamide], for which the 50% inhibitory concentration (IC50) at FAK and at PYK2 was under 0.02 µM each time.
Turning to `CNS(=O)(=O)c1ccccc1Nc1nc(Nc2ccc(N3CCOCC3)cc2OC)nc2c1C1(CC1)CN2` [Example 135, 2-(2′-(2-methoxy-4-morpholinophenylamino)-6′,7′-dihydrospiro[cyclopropane-1,5′-pyrrolo[2,3-d]pyrimidine]-4′-ylamino)-N-methylbenzenesulfonamide], the IC50 against FAK was under 0.05 µM; on PYK2 it was under 0.02 µM.
`COc1cc(N2CCOCC2)ccc1Nc1nc2c(c(Nc3ccccc3S(=O)(=O)NC3CCCCC3)n1)C(C)(C)CN2` [Example 109, N-cyclohexyl-2-(2-(2-methoxy-4-morpholinophenylamino)-5,5-dimethyl-6,7-dihydro-5H-pyrrolo[2,3-d]pyrimidin-4-ylamino)benzenesulfonamide]: the IC50 against FAK and on PYK2 was under 0.2 µM in each case.
`COc1cc(N2CCOCC2)ccc1Nc1nc2c(c(Nc3ccc(F)c(F)c3)n1)C(C)CN2` (racemic) [Example 34, (±)-N^4-(3,4-difluorophenyl)-N^2-(2-methoxy-4-morpholinophenyl)-5-methyl-6,7-dihydro-5H-pyrrolo[2,3-d]pyrimidine-2,4-diamine]: the IC50 is over 1 µM on FAK and under 1 µM against PYK2.
On the same counts, the results for `COc1cc(N2CCOCC2)ccc1Nc1nc2c(c(Nc3ccccc3NC(C)=O)n1)C(C)(C)CN2` [Example 124, N-(2-(2-(2-methoxy-4-morpholinophenylamino)-5,5-dimethyl-6,7-dihydro-5H-pyrrolo[2,3-d]pyrimidin-4-ylamino)phenyl)acetamide] are under 0.2 µM and under 0.2 µM.
On the same counts, the results for `CNC(=O)c1ccc(Nc2nc3c(c(Nc4ccccc4S(=O)(=O)NC(C)C)n2)CCN3)cc1` [Example 53, 4-(4-(2-(N-isopropylsulfamoyl)phenylamino)-6,7-dihydro-5H-pyrrolo[2,3-d]pyrimidin-2-ylamino)-N-methylbenzamide] are under 0.02 µM and under 0.02 µM.
On the same counts, the results for `CC(C)NC(C)c1ccc(Nc2nc3c(c(Nc4ccccc4S(=O)(=O)NC(C)C)n2)CCN3)cc1` (stereo not drawn) [Example 72, N-isopropyl-2-(2-(4-(1-(isopropylamino)ethyl)phenylamino)-6,7-dihydro-5H-pyrrolo[2,3-d]pyrimidin-4-ylamino)benzenesulfonamide] are under 0.02 µM and under 0.02 µM.
For the compound `COc1cc(-n2cccn2)ccc1Nc1nc2c(c(Nc3ccccc3S(=O)(=O)NC(C)C)n1)CCN2` [Example 94, N-isopropyl-2-(2-(2-methoxy-4-(1H-pyrazol-1-yl)phenylamino)-6,7-dihydro-5H-pyrrolo[2,3-d]pyrimidin-4-ylamino)benzenesulfonamide], the IC50 against FAK was under 0.05 µM; at PYK2 it was under 0.2 µM.
For the compound `COc1cc(N2CCOCC2)ccc1Nc1nc2c(c(Nc3ccccc3C(=O)O)n1)CCN2` [Example 160, 2-(2-(2-methoxy-4-morpholinophenylamino)-6,7-dihydro-5H-pyrrolo[2,3-d]pyrimidin-4-ylamino)benzoic acid], the figures for the IC50 against FAK and on PYK2 were under 0.5 µM and under 1 µM, respectively.
Consider `COc1cc(N2CCCC2)ccc1Nc1nc2c(c(Nc3ccccc3S(=O)(=O)NC(C)C)n1)CCN2` [Example 67, N-isopropyl-2-(2-(2-methoxy-4-(pyrrolidin-1-yl)phenylamino)-6,7-dihydro-5H-pyrrolo[2,3-d]pyrimidin-4-ylamino)benzenesulfonamide], for which the IC50 is under 0.05 µM on FAK and under 0.1 µM against PYK2.
On to `COc1cc(N2CCC(N(C)C)C2)ccc1Nc1nc2c(c(Nc3ccccc3S(=O)(=O)NC(C)C)n1)CCN2` (stereo not drawn) [Example 89, 2-(2-(4-(3-(dimethylamino)pyrrolidin-1-yl)-2-methoxyphenylamino)-6,7-dihydro-5H-pyrrolo[2,3-d]pyrimidin-4-ylamino)-N-isopropylbenzenesulfonamide], for which the IC50 at FAK and against PYK2 was under 0.02 µM each time.
`CNC(=O)c1ccccc1Nc1nc(Nc2cccc3ccoc23)nc2c1C(C)(C)CN2` [Example 131, 2-(2-(benzofuran-7-ylamino)-5,5-dimethyl-6,7-dihydro-5H-pyrrolo[2,3-d]pyrimidin-4-ylamino)-N-methylbenzamide]: the IC50 on FAK and against PYK2 was under 0.02 µM each time.
As to `CNC(=O)c1ccc2c(c1Nc1nc(Nc3ccc(N4CCOCC4)cc3OC)nc3c1CCN3)OCO2` [Example 2, 4-(2-(2-methoxy-4-morpholinophenylamino)-6,7-dihydro-5H-pyrrolo[2,3-d]pyrimidin-4-ylamino)-N-methylbenzo[d][1,3]dioxole-5-carboxamide], the IC50 against FAK and on PYK2 was over 1 µM each time.
Consider `CNC(=O)c1ccccc1Nc1nc(Nc2ccc(N3CCOCC3)cc2OC)nc2c1[C@H](C)CN2` [Example 35, (S)-2-(2-(2-methoxy-4-morpholinophenylamino)-5-methyl-6,7-dihydro-5H-pyrrolo[2,3-d]pyrimidin-4-ylamino)-N-methylbenzamide], for which the IC50 against FAK and on PYK2 was under 0.02 µM each time.
In the case of `CC(C)NS(=O)(=O)c1ccccc1Nc1nc(Nc2ccc(N3CCOCC3)cn2)nc2c1CCN2` [Example 58, N-isopropyl-2-(2-(5-morpholinopyridin-2-ylamino)-6,7-dihydro-5H-pyrrolo[2,3-d]pyrimidin-4-ylamino)benzenesulfonamide], the IC50 against FAK is under 0.02 µM; against PYK2 it was under 0.05 µM.

The values are drawn from patent US9428508B2, “2,4-diamino-6,7-dihydro-5H-pyrrolo[2,3]pyrimidine derivatives as FAK/Pyk2 inhibitors” (Centaurus BioPharma Co., Ltd., priority 2011, dated 2016).
